According to ChEMBL document CHEMBL1201862, “PubChem BioAssay data set” (2004):
Calls of active or inactive are those of the source.

How the values were obtained:
[1] = target: COUP transcription factor 2 (Homo sapiens, UniProt P24468); test: Luminescence-based cell-based high throughput dose response assay to identify inhibitors of COUP-TFII (NR2F2).; format: functional;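 further: HEK293 cells transiently cotransfected with COUP-TFII expression vector and reporter; luciferase reporter luminescence driven by COUP-TFII from the pX2-168 reporter plasmid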
COUP transcription factor 2, sequence (P24468 whole entry): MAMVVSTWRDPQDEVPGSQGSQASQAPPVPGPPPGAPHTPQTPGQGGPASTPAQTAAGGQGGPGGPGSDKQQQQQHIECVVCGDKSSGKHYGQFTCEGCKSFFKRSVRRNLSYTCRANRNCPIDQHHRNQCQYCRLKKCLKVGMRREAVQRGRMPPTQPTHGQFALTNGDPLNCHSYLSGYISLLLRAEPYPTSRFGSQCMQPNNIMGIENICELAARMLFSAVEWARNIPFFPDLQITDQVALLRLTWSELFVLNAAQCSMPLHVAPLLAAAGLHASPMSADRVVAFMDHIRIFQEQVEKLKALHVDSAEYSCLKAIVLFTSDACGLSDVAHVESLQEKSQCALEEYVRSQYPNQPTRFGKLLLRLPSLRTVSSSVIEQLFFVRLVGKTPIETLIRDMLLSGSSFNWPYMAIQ

[2] = system: INS1; test: beta cell apoptosis inhibitors, cytokine rescue, dose response, luminescence, retest (AID 449756); format: functional, cell-based; conditions: Rattus norvegicus;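 further: cell death triggered by IL-1 beta plus TNF-alpha plus IFN-gamma mixture; protective hits raise ATP signal compared with cytokine alone wells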
[3] = cytotoxicity in HEK-293T cells, dose response, cytotoxicity control for BCR NF-kB inhibitor project, luminescence, B-cell screen hits (AID 489021); format: functional, cell-based;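 further: HEK-293T cells carrying an NF-kB luciferase reporter; cells exposed to compound for about 14 hours before viability readout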
[4] = ZM109 Env clade C HIV-1 fusion inhibitors, dose response, HeLa effector, CEM target cells, luciferase, cherry-pick (AID 652058); format: functional, cell-based
[5] = cells; format: functional, cell-based; conditions: HEK-CNG
[6] = inhibitors of clade B AD8 Env fusion, dose response, cell-based, cherry-pick (AID 652062); format: functional;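 further: luciferase signal from cell-cell fusion driven by HIV-1 clade B AD8 Env; potency is for inhibitors of fusion seen as a drop in luminescence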
[7] = target: T1, High affinity choline transporter 1 (Homo sapiens, UniProt Q9GZV3); test: CHT inhibitors, dose response, cell-based, 5-point CRC, membrane potential dye (AID 504840); format: functional
T1 sequence (Q9GZV3 whole entry): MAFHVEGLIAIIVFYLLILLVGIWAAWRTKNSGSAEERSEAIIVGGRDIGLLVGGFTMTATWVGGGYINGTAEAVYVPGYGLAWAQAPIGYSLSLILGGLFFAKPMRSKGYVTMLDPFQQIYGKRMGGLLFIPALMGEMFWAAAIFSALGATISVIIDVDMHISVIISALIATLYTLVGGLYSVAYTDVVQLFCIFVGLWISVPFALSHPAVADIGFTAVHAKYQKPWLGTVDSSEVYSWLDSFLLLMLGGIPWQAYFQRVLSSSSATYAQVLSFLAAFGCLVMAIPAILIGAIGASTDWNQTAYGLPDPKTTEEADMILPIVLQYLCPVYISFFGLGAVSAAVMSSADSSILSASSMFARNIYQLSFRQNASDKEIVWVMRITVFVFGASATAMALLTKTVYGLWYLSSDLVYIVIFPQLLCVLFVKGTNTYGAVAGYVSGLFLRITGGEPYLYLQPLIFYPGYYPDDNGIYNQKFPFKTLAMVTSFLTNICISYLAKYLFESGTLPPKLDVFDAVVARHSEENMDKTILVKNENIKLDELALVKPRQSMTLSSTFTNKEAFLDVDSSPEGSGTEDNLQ

[8] = target: T2, Galanin receptor type 3 (Homo sapiens, UniProt O60755); test: Fluorescence-based cell-based primary high throughput dose response assay to identify antagonists of the Galanin Receptor 3 (GalR3).; format: functional
T2 sequence (O60755 whole entry): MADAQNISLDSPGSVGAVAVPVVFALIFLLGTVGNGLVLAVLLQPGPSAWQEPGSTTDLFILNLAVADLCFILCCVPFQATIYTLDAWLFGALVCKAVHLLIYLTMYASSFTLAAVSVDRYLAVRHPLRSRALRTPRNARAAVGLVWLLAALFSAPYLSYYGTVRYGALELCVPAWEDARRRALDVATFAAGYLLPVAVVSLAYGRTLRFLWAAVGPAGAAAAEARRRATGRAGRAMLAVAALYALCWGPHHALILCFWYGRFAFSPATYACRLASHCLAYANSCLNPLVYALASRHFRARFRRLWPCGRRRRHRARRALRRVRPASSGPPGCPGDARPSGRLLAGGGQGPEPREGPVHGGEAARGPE

[9] = HepG2 cell cytotoxicity, dose response, cytotoxicity control, ATP luminescence, cherry-pick, activator set 2 (AID 1053143); format: functional, cell-based
[10] = target: T3, Oxysterols receptor LXR-beta (Homo sapiens, UniProt P55055); format: functional, cell-based;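 further: agonist activity at LXR measured by a cell-based luminescence readout across a dose range, run as a counterscreen for daf-12 agonists; HEK293 cells with Gal4-LXR fusion and GAL4-driven luciferase reporter; potency for activation of Gal4-LXR reporter so compounds are agonists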
T3 sequence (P55055 whole entry): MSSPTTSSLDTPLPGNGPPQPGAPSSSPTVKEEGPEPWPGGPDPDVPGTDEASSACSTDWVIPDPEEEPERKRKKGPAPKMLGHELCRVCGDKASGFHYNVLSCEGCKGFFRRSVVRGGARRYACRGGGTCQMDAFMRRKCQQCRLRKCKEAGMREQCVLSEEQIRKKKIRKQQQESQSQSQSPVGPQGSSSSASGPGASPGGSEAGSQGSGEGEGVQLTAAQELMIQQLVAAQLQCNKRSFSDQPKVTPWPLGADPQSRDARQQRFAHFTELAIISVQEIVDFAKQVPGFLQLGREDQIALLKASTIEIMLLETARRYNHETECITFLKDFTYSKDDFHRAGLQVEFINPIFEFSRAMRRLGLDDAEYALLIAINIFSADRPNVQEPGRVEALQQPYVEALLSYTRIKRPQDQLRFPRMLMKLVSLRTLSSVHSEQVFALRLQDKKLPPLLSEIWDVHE

[11] = HeLa cell cytotoxicity, dose response, cytotoxicity control for MgcRacGAP inhibitor project (AID 624300); format: functional
[12] = human group III sPLA2 inhibitors, dose response, biochemical, QFRET, IC50 (AID 743457);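 further: green fluorescence rise as the enzyme cleaves BODIPY PC-A2 in liposomes; potency for inhibition of the enzyme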
[13] = target: T4, Histone-lysine N-methyltransferase NSD2 (Homo sapiens, UniProt O96028); format: biochemical
T4 sequence (O96028 whole entry): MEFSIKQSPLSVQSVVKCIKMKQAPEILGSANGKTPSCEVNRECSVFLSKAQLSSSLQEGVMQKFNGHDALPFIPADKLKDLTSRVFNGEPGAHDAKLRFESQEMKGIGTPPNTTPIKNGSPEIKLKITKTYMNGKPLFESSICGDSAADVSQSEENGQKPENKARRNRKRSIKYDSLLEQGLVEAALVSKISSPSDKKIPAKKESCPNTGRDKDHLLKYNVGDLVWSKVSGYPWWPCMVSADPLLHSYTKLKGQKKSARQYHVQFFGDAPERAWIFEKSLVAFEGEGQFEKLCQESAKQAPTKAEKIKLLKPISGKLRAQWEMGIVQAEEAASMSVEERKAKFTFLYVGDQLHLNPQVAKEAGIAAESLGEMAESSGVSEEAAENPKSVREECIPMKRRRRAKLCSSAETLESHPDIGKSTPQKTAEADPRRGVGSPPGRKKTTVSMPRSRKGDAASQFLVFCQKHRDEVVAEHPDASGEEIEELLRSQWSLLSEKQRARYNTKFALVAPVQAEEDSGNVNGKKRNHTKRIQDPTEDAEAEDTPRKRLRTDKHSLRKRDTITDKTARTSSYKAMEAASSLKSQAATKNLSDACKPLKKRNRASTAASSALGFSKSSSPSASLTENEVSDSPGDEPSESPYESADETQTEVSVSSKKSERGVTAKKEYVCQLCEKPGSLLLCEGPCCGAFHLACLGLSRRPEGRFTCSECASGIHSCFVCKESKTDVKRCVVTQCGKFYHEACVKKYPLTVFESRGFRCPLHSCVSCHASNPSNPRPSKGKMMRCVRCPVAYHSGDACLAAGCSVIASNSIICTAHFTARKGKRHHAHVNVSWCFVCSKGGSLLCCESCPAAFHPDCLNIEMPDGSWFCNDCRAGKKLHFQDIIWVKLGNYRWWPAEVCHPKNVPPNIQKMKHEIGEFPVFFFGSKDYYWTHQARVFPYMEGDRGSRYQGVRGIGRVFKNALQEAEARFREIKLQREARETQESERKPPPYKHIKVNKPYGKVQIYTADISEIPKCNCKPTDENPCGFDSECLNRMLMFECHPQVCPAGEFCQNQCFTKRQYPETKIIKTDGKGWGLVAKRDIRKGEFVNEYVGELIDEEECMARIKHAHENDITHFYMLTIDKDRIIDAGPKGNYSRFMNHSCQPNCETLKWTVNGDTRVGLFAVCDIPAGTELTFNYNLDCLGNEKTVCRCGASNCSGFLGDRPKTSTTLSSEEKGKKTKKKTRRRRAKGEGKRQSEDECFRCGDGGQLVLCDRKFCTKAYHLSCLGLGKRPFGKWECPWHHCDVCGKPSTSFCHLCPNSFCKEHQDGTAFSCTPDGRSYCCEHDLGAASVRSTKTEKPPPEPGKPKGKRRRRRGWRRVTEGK

[14] = target: T5, DNA repair protein RAD52 homolog (Homo sapiens, UniProt P43351); format: functional, biochemical
T5 sequence (P43351 whole entry): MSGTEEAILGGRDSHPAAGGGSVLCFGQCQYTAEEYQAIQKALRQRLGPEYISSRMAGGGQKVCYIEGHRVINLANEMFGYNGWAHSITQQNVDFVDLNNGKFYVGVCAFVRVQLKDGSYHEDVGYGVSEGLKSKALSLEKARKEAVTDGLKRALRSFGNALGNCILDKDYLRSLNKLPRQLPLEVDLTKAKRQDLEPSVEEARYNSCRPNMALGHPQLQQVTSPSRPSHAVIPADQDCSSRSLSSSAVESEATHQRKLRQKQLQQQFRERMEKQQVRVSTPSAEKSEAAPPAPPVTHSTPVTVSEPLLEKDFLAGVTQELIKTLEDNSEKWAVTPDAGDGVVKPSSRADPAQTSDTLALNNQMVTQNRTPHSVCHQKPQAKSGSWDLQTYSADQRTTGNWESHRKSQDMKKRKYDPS

[15] = target: Nonstructural protein 1 (Influenza A virus, UniProt Q194T2); format: functional, Influenza A virus (A/California/07/2009(H1N1))
Nonstructural protein 1, sequence (Q194T2 whole entry): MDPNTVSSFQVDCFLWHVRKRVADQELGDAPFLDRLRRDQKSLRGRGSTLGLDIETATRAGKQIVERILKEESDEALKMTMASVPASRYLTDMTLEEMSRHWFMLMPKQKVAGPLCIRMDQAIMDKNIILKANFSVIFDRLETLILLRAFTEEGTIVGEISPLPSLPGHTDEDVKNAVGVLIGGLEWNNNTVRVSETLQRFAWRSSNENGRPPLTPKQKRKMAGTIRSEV

[16] = target: T6, Rac GTPase-activating protein 1 (Homo sapiens, UniProt Q9H0H5); test: MgcRacGAP GTPase-activating activity inhibitors, confirmation, biochemical, ADP Hunter fluorescence, primary and confirmatory (AID 624330); format: functional
T6 sequence (Q9H0H5 whole entry): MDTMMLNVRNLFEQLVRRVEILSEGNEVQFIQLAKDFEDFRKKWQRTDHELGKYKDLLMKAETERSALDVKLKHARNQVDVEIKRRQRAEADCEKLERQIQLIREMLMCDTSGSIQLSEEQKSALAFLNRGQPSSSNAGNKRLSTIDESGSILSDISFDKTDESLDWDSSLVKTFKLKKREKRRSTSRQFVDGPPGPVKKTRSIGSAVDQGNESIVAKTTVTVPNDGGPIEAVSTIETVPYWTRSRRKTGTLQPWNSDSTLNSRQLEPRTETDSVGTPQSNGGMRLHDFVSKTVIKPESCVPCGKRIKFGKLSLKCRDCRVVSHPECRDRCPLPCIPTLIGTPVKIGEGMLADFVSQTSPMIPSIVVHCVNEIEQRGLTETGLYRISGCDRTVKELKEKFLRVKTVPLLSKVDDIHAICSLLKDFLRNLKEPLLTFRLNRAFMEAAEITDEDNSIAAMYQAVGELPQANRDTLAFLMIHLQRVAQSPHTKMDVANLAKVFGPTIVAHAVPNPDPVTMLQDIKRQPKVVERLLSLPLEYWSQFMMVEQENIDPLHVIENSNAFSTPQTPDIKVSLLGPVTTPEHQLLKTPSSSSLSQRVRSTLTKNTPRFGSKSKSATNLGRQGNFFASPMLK

For `Cc1nn(C)c(C)c1CN(C)S(=O)(=O)c1ccc2ccccc2c1`, the IC50 [1] was 3.25 µM (active), the AC50 [2] was 1.93 µM (active) and the IC50 [3] was > 80 µM (inactive). The AC50 [4] was 0.626 µM (active), the EC50 [5] was > 29.9 µM (inactive) and the AC50 [6] was 2.42 µM (active). The IC50 [7] was 12.6 µM (active) and the IC50 [8] was 1.01 µM (active).

For `CC(=O)C(=CNc1cc(-c2ccc(C)cc2)nn1-c1ccccc1)C(C)=O`, the AC50 [9] was 26 µM (active).

For `CCN(CC)S(=O)(=O)c1ccc(C(=O)OCC(=O)Nc2ccc(-c3nc4ccc(C)cc4s3)cc2)cc1`, the EC50 [10] was > 67.5 µM (inactive).

For `Cc1cc2cc(CCNC(=O)c3cccs3)c(O)nc2cc1C`, the AC50 [9] was 26 µM (active).

In the case of `CC[n+]1ccc(/C=C/c2ccc(N(C)C)cc2)c2ccccc21`, the CC50 [11] is reported as 49.2 µM (active), the IC50 [12] is reported as 24.6 µM (inactive) and the AC50 [13] is reported as 13.4 µM (active). The AC50 [14] was 2.21 µM (active), the IC50 [15] was 9.07 µM (active) and the IC50 [16] was 36.1 µM (active).
